Test results from US12150777B2, “Treatment of depression” (The Board of Trustees of the Leland Stanford Junior …, priority 2018, dated 2024).
Read-outs that look alike come from different tables or passages of the source.

Key:
[1] = EMBARC randomized trial, sertraline versus placebo, HAMD17 outcome; format: in vivo, human; settings: all patients
Description: Assessments and treatment protocol: The primary clinical outcome was total scores on the Hamilton Rating Scale for Depression 17-item (HAMD17)^24,25, administered at each study visit (baseline, week 1, week 2, week 3, week 4, week 6, and week 8).
Key eligibility for the study included being 18-65 years old, having major depression as a primary diagnosis by the Structured Clinical Interview for DSM-IV Axis I Disorders^1, at least moderate depression severity with a score≥14 on the Quick Inventory of Depressive Symptomatology-Self Report (QIDS-SR) at screening and randomization, a major depressive episode beginning before age 30, either a chronic recurrent episode (duration≥2 years) or recurrent MDD (at least 2 lifetime episodes), and no antidepressant failure during the current episode. […] In addition, 40 healthy individuals who were medically and psychiatrically healthy, were recruited across the four sites, and assessed in a similar manner as the patients. […]

[2] = Moderation of outcome by left amygdala PPI task-related connectivity; format: in vivo, human
Description: Context-dependent connectivity analyses were conducted using the generalized PPI toolbox^1. A “seed” region was defined volumetrically using an anatomical region of interest mask of the left and right amygdala. Each amygdala mask was then deformed from Montereal Neurological Institute standard space into the participant's native anatomical space using the inverse warp parameter determined during spatial normalization of the preprocessing stage. […] The interaction of the time series of behavioral parameters of interest, i.e. the task conditions utilized in the first-level activation analysis, with the deconcolved “neuronal” time series were calculated for each task condition of interest, thus producing a fully specified statistical model modeling the interaction of each task condition with the observed BOLD time series (a psychophysiological interaction). […] The first-level beta weights for the contrasts of conditions of interest were then calculated on the individual level, and individual-level generalized PPI beta maps were then carried to a second level linear mixed model analysis conducted in R using the fmri^2 and nlme^3 packages to assess voxelwise task-dependent connectivity moderation effects (as in the activation analyses).

[3] = for endpoint symptom difference Cohen's d / remission NNT: below median iI-cI activation
Description: fMRI task and acquisition parameters: The emotional conflict task is a well-characterized paradigm^17,18, that induces emotional conflict through pairing fearful and happy faces with overlaid congruent or incongruent emotion words (participants identify facial expression using a keypad).
fMRI preprocessing and first-level modeling: For the emotional conflict task, the contrasts of interest were incongruent versus congruent trials (conflict) and post-incongruent incongruent trials versus post-congruent incongruent trials (an established measure of conflict regulation)^11,13,17,18.
Statistical analyses: All moderation analyses were conducted under an intention-to-treat framework, incorporating all randomized patients after removing those with excessive head motion or low task accuracy. As such, we employed linear mixed models both for the voxelwise neuroimaging data, as well as follow-up analyses on extracted brain signals, while fully controlling for any potential differences due to site of acquisition. Whole-brain voxelwise correction for multiple comparisons was performed at p<0.05 based on the false discovery rate.
Emotional conflict task: This well-characterized paradigm assesses both emotional conflict and emotional conflict regulation^3,4. Each trial involved presentation of an emotional face with either a fearful or happy expression, drawn from the set of Ekman & Friesen^5, with an overlaid emotion word (“FEAR” or “HAPPY”). Participants were instructed to identify the facial emotion with a key press, while trying to ignore the emotion word. The task consisted of 148 trials, with stimuli presented for 1000 milliseconds (ms) in a fast event-related design. Interstimulus intervals were 3000-5000 ms in a pseudo-randomized order counterbalanced for facial expression, gender, word, and response button. Stimuli were either congruent (e.g. fearful face with “FEAR”) or incongruent (e.g. fearful face with “HAPPY”), and stimuli were furthermore balanced to achieve an equal fraction of current and prior trial congruency, while ensuring no direct stimulus repetitions. Prior to performance of the task during neuroimaging, all participants underwent a practice version to ensure task proficiency was reached (minimum 80% accuracy) and the task instructions were understood. The neuroimaging task lasted 13 minutes and 14 seconds.
We constrained analyses to a search space defined by a whole-brain mask constructed from: a) a 30% probabilistic voxelwise threshold derived from spatially normalized, segmented binary gray matter images from an independent sample of healthy comparison participants^9,10; and b) a conjunction map of adequate signal coverage across study scanners constructed by concatenating the binarized individual-level average map of all task experimental conditions within participants acquired at each scanner, thresholding at a minimum of 50% coverage within each scanner sample, and then conjoining these maps across all scanners. Thus, the final search space was a function of both adequate signal coverage across all study scanners as well as a probabilistic assignment to the brain's gray matter. At each voxel within this search space, the moderating effect of baseline brain activation (mean-centered) was examined using a longitudinal linear mixed model implemented in the nlme R package.^14 Modeled effects included a random and fixed intercept, fixed effects of time, time×treatment arm, 4 mean-centered, dummy-coded scanner variables corresponding to: a) Columbia University scanner 1 vs. UT Southwestern scanner; b) Columbia University scanner 2 vs. UT Southwestern scanner; c) Massachusetts General Hospital scanner vs. UT Southwestern scanner; and d) University of Michigan scanner vs. UT Southwestern scanner, treatment arm×time×brain activation, and all model variables in interaction with each of the 4 site variables.

## CN[C@H]1CC[C@@H](c2ccc(Cl)c(Cl)c2)c2ccccc21 [sertraline]
[1]; HAMD17, linear mixed model, 8 weeks
  endpoint symptom reduction with sertraline versus placebo, Cohen's d: 0.24
[1]; sertraline versus placebo
  remission number needed to treat (NNT): 20.1
[2]; left amygdala PPI connectivity to dorsal anterior cingulate above median
  symptom change with sertraline versus placebo: failed to show any difference
[2]; left amygdala PPI connectivity to dorsal anterior cingulate below median
  symptom change with sertraline compared to placebo: steep decline in symptoms
[3]; anterior insula
  endpoint symptom difference Cohen's d: 0.53
  remission NNT: 6.3
[3]; dorsal anterior cingulate
  endpoint symptom difference Cohen's d: 0.79
  remission NNT: 3
[3]; frontopolar cortex
  endpoint symptom difference Cohen's d: 0.85
  remission NNT: 2.9
[3]; patients in bottom half of emotion-regulation capacity
  benefit of sertraline over placebo: no benefit
[3]; patients in bottom quartile of emotional conflict regulatory ability
  benefit of sertraline over placebo: no benefit
[3]; patients in top half of emotion-regulation capacity
  number needed to treat: < 5
[3]; patients in top quartile of emotional conflict regulatory ability
  number needed to treat versus placebo: < 4
